Experimental data from US7022701B2, “Indolylalkylamine derivatives as 5-hydroxytryptamine-6 ligands” (Wyeth, priority 2001, dated 2006).
Structures can show the parent of a compound that is named as a salt.

These compounds were tested against T1, human cloned 5-HT6 receptors (Homo sapiens, UniProt P50406) (assay: 5-HT6 binding affinity, [3H]-LSD displacement on membranes of Hela cells expressing the receptor). Conditions: not given.
T1 construct: expressed in transfected cells; host or cells: Hela cells
T1 sequence (P50406 whole entry): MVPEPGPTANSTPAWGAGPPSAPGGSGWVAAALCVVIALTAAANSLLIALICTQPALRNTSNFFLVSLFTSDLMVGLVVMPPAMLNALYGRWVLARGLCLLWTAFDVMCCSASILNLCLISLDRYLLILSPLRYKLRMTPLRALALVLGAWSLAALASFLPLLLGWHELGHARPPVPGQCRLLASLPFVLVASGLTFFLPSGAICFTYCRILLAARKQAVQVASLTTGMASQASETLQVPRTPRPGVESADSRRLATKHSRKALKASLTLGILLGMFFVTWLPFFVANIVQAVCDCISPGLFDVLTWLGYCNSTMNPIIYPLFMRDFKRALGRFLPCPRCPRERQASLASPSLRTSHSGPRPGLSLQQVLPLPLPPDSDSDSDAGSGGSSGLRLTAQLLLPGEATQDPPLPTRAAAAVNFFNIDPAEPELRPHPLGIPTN
Method: The affinity of test compounds for the serotonin 5-HT6 receptor is evaluated in the following manner. Cultured Hela cells expressing human cloned 5-HT6 receptors are harvested and centrifuged at low speed (1,000×g) for 10.0 min to remove the culture media. The harvested cells are suspended in half volume of fresh physiological phosphate buffered saline solution and recentrifuged at the same speed. This operation is repeated. The collected cells are then homogenized in ten volumes of 50 mM Tris.HCl (pH 7.4) and 0.5 mM EDTA. The homogenate is centrifuged at 40,000×g for 30.0 min and the precipitate is collected. The obtained pellet is resuspended in 10 volumes of Tris.HCl buffer and recentrifuged at the same speed. The final pellet is suspended in a small volume of Tris.HCl buffer and the tissue protein content is determined in aliquots of 10–25 μl volumes. […] The volume of the suspended cell membranes is adjusted to give a tissue protein concentration of 1.0 mg/ml of suspension. The prepared membrane suspension (10 times concentrated) is aliquoted in 1.0 ml volumes and stored at −70° C. until used in subsequent binding experiments.
Binding experiments are performed in a 96 well microtiter plate format, in a total volume of 200 μl. […] The test compounds are added in 20.0 μl volume.
The bound complex caught on the filter disk is allowed to air dry and the radioactivity is measured in a Packard TopCount® equipped with six photomultiplier detectors, after the addition of 40.0 μl Microscint®-20 scintillant to each shallow well. The unifilter plate is heat-sealed and counted in a PackardTopCount® with a tritium efficiency of 31.0%.
Binding in the presence of varying concentrations of test compound is expressed as a percentage of specific binding in the absence of test compound. The results are plotted as log % bound versus log concentration of test compound.

Compound | Ki [µM]
Cc1cccc2c(CCN)cn(S(=O)(=O)c3c(Cl)nc4sccn34)c12 [Example 36, 2-[1-(6-chloro-imidazo[2,1-b][1,3]thiazole-5-sulfonyl)-7-methyl-1H-indol-3-yl]ethylamine] | 0.348
CNCCc1cn(S(=O)(=O)c2c(Cl)nc3sccn23)c2ccccc12 [Example 3, (2-[1-(6–Chloroimidazo[2,1-b]thiazole-5-sulfonyl)-1H-indol-3-yl]ethyl}methyl amine] | 0.019
COc1ccc2c(CCN)cn(S(=O)(=O)c3c(Cl)nc4sccn34)c2c1 [Example 31, 2-[1-(6-chloro-imidazo[2,1-b][1,3]thiazole-5-sulfonyl)-6-methoxy-1H-indol-3-yl]ethylamine] | 0.013
NCCc1cn(S(=O)(=O)c2c(Cl)nc3sccn23)c2ccc(Br)cc12 [Example 32, 2-[5-bromo-1-(6-chloro-imidazo[2,1-b][1,3]thiazole-5-sulfonyl)-1H-indol-3-yl]ethylamine] | 0.074
NCCc1cn(S(=O)(=O)c2c(Cl)nc3sccn23)c2cc(F)ccc12 [Example 39, 2-[1-(6-chloro-imidazo[2,1-b][1,3]thiazole-5-sulfonyl)-6-fluoro-1H-indol-3-yl]ethylamine] | 0.005
CN(C)CCc1cn(S(=O)(=O)c2c(Cl)nc3sccn23)c2ccccc12 [Example 4, {2-[1-(6-chloro-imidazo[2,1-b][1,3]thiazole-5-sulfonyl)-1H-indol-3-yl]ethyl}dimethylamine] | 0.001
NCCc1cn(S(=O)(=O)c2c(Cl)nc3sc(Cl)cn23)c2ccccc12 [Example 18, 2-[1-(2,6-dichloro-imidazo[2,1-b][1,3]thiazole-5-sulfonyl)-1H-indol-3-yl]ethylamine] | 0.008
C[C@@H](N)Cc1cn(S(=O)(=O)c2c(Cl)nc3sccn23)c2ccccc12 [Example 16, ®-2-[1-(6 Chloroimidazo[2,1-b]thiazole-5-sulfonyl)-1H-indol-3-yl]-1-methylethylamine Hydrochloride] | 0.002
CC(N)Cc1cn(S(=O)(=O)c2c(Cl)nc3sccn23)c2ccccc12 (stereo not shown) [Example 12, 2[1-(6–Chloroimidazo[2,1-b]thiazole-5-sulfonyl)-1H-indol-3-yl]-1-methylethylamine Hydrochloride] | 0.002
COc1ccc2c(c1)c(CCN)cn2S(=O)(=O)c1c(Cl)nc2sccn12 [Example 30, 2-[1-(6-chloro-imidazo[2,1-b][1,3]thiazole-5-sulfonyl)-5-methoxy-1H-indol-3-yl]ethylamine] | 0.011
C[C@H](N)Cc1cn(S(=O)(=O)c2c(Cl)nc3sccn23)c2ccccc12 [Example 15, (S)-2-[1-(6–Chloroimidazo[2,1-b]thiazole-5-sulfonyl)-1H-indol-3-yl]-1-methylethylamine Hydrochloride] | 0.006
O=S(=O)(c1c(Cl)nc2sccn12)n1cc(CCNCc2ccccc2)c2ccccc21 [Example 5, benzyl-{2-[1-(6-chloro-imidazo[2,1-b][1,3]thiazole-5-sulfonyl)-1H-indol-3-yl]ethyl}amine] | 0.004
CN1CCN(CCc2cn(S(=O)(=O)c3c(Cl)nc4sccn34)c3ccccc23)CC1 [Example 7, 1-(6-chloro-imidazo[2,1-b][1,3]thiazole-5-sulfonyl)-3-[2-(4-methylpiperazin-1-yl)ethyl]-1H-indole] | 0.007
NCCc1cn(S(=O)(=O)c2c(Cl)nc3sccn23)c2ccc(F)cc12 [Example 38, 2-[1-(6-chloro-imidazo[2,1-b][1,3]thiazole-5-sulfonyl)-5-fluoro-1H-indol-3-yl]ethylamine] | 0.009
CN(C)CCc1cn(S(=O)(=O)c2c(Cl)nc3sc(Cl)cn23)c2ccccc12 [Example 24, {2-[1-(2,6-dichloro-imidazo[2,1-b][1,3]thiazole-5-sulfonyl)-1H-indol-3-yl]ethyl}dimethylamine] | 0.01
CN(CCc1cn(S(=O)(=O)c2c(Cl)nc3sccn23)c2ccccc12)Cc1ccccc1 [Example 9, benzyl-{2-[1-(6-chloro-imidazo[2,1-b][1,3]thiazole-5-sulfonyl)-1H-indol-3-yl]ethyl}methylamine] | 0.005
Cc1ccc2c(CCN)cn(S(=O)(=O)c3c(Cl)nc4sccn34)c2c1 [Example 35, 2-[1-(6-chloro-imidazo[2,1-b][1,3]thiazole-5-sulfonyl)-6-methyl-1H-indol-3-yl]ethylamine] | 0.006
O=S(=O)(c1c(Cl)nc2sccn12)n1cc(CCNCCc2ccccc2)c2ccccc21 [Example 10, {2-[1-(6-chloro-imidazo[2,1-b][1,3]thiazole-5-sulfonyl)-1H-indol-3-yl]ethyl}phenethylamine] | 0.041
NCCc1cn(S(=O)(=O)c2c(Cl)nc3sccn23)c2ccc(O)cc12 [Example 37, 3-(2-amino-ethyl)-1-(6-chloro-imidazo[2,1-b][1,3]thiazole-5-sulfonyl)-1H-indol-5-ol] | 0.004
Cc1ccc2c(c1)c(CCN)cn2S(=O)(=O)c1c(Cl)nc2sccn12 [Example 34, 2-[1-(6-chloro-imidazo[2,1-b][1,3]thiazole-5-sulfonyl)-5-methyl-1H-indol-3-yl]ethylamine] | 0.031
CNCCc1cn(S(=O)(=O)c2c(Cl)nc3ccccn23)c2ccccc12 [Example 20, {2-[1-(2-chloro-imidazo[1,2-a]pyridine-3-sulfonyl)-1H-indol-3-yl]ethyl}methylamine] | 0.011
NCCc1cn(S(=O)(=O)c2c(Cl)nc3sccn23)c2ccc(OCc3ccccc3)cc12 [Example 33, 2-[5-benzyloxy-1-(6-chloro-imidazo[2,1-b][1,3]thiazole-5-sulfonyl)-1H-indol-3-yl]ethylamine] | 0.169
NCCc1cn(S(=O)(=O)c2c(Cl)nc3ccccn23)c2ccccc12 [Example 17, 2-[1-(2-chloro-imidazo[1,2-a]pyridine-3-sulfonyl)-1H-indol-3-yl]ethylamine] | 0.014
O=S(=O)(c1c(Cl)nc2sccn12)n1cc(CCN2CCCC2)c2ccccc21 [Example 6, 1-(6-chloro-imidazo[2,1-b][1,3]thiazole-5-sulfonyl)-3-(2-pyrrolidin-1-ylethyl)-1H-indole] | 0.005
O=C(O)C1CCCN1CCc1cn(S(=O)(=O)c2c(Cl)nc3sccn23)c2ccccc12 (stereo not shown) [Example 11, 1-{2-[1-(6-chloro-imidazo[2,1-b][1,3]thiazole-5-sulfonyl)-1H-indol-3-yl]ethyl}pyrrolidine-2-carboxylic acid] | 0.03
CNCCc1cn(S(=O)(=O)c2c(Cl)nc3sc(Cl)cn23)c2ccccc12 [Example 21, {2-[1-(2,6-dichloro-imidazo[2,1-b][1,3]thiazole-5-sulfonyl)-1H-indol-3-yl]ethyl)methylamine] | 0.012
NCCc1cn(S(=O)(=O)c2cnc3sccn23)c2ccccc12 [Example 40, 2-{1-[(imidazo[2,1-b][1,3]thiazol-5-yl)sulfonyl]-1H-indol-3-yl}ethylamine] | 0.0012

Same assay, conditions: [3H]-LSD 3.0 nM, membranes of Hela cells expressing human cloned 5-HT6 receptors, 120 min at room temperature; read-out: 5-HT6 Binding Ki

Compound | Ki [µM]
{2-[1-(2-chloro-benzo[d]imidazo[2,1-b][1,3]thiazole-3-sulfonyl)-1H-indol-3-yl]ethyl}methylamine [Example 22] | 0.051
NCCCc1cn(S(=O)(=O)c2c(Cl)nc3sccn23)c2ccc(F)cc12 [Example 45, 3-{1-[(6–Chloroimidazo[2,1-b][1,3]thiazol-5-yl)sulfonyl]-5-fluoro-1H-indol-3-yl}propan-1-amine] | 0.048
CN(C)CCc1cn(S(=O)(=O)c2c(Cl)nc3ccccn23)c2ccccc12 [Example 23, {2-[1-(2-chloro-imidazo[1,2-a]pyridine-3-sulfonyl)-1H-indol-3-yl]ethyl}dimethyamine] | 0.01
{2-[1-(2-chloro-benzo[d]imidazo[2,1-b][1,3]thiazole-3-sulfonyl)-1H-indol-3-yl]ethyl}dimethylamine [Example 25] | 0.037
